# Test results: patent US11912675B1, “N'-(2-(5-(4-chlorophenyl)-1,3,4-oxadiazol-2-ylthio)acetoxy)-3,4-dimethoxybenzimidamide as an antimicrobial compound” (KING FAISAL UNIVERSITY, priority 2023, dated 2024)
# Key:
# Type in all cases: cell-based
# [1] = system: Escherichia coli; test: agar plate disc-diffusion, antibacterial, Escherichia coli; settings: nutrient agar, 37° C., 48 h, DMSO control zone subtracted
# Description: (§1) The agar plate disc-diffusion method was applied. Sterilized filter papers (6 mm in diameter) were wetted with 10 μL of a solution of N′-(2-(5-(4-chlorophenyl)-1,3,4-oxadiazol-2-ylthio)acetoxy)-3,4-dimethoxybenzimidamide (3) to be tested, containing 10 mg/mL in DMSO, and the discs were allowed to air dry. The discs were then placed onto the surface of agar plates (nutrient agar for bacteria and Sabouraud's dextrose agar for fungi) seeded with the test organism. Each plate contained 15 mL of the agar medium, previously seeded with 0.2 mL of the broth culture of each organism pregrown for 18 h. The plates were incubated at 37° C. for 48 h, and 72 h for fungi. The inhibition zones was measured in mm. Discs impregnated with DMSO were used as a control, and its inhibition zone was subtracted from the tested compound actual inhibition zone.
# (§2) The antibacterial activity was screened against gram positive bacteria namely Bacillus cereus and Staphylococcus aureus and gram-negative bacterial strains namely Pseudomonas aeruginosa and Escherichia coli, while the antifungal activity was screened against Aspergillus flavus and Chrysosporium keratinophilum as shown in Table 1 and 2.
# [2] = system: Pseudomonas aeruginosa; test: agar plate disc-diffusion, antibacterial, Pseudomonas aeruginosa; settings: nutrient agar, 37° C., 48 h, DMSO control zone subtracted
# Description: as §1, with “Sterilized filter papers (6 mm in diameter) were wetted with 10 μL of a solution of N′-(2-(5-(4-chlorophenyl)-1,3,4-oxadiazol-2-ylthio)acetoxy)-3,4-dimethoxybenzimidamide (3) to be tested, containing 10 mg/mL in DMSO, and the discs were allowed to air dry.” left out
# as §2
# [3] = system: Staphylococcus aureus; test: agar plate disc-diffusion, antibacterial, Staphylococcus aureus; settings: nutrient agar, 37° C., 48 h, DMSO control zone subtracted
# Description: as §1, with “Sterilized filter papers (6 mm in diameter) were wetted with 10 μL of a solution of N′-(2-(5-(4-chlorophenyl)-1,3,4-oxadiazol-2-ylthio)acetoxy)-3,4-dimethoxybenzimidamide (3) to be tested, containing 10 mg/mL in DMSO, and the discs were allowed to air dry.” left out
# as §2
# [4] = system: Bacillus cereus; test: agar plate disc-diffusion, antibacterial, Bacillus cereus; settings: nutrient agar, 37° C., 48 h, DMSO control zone subtracted
# Description: as §1, with “Sterilized filter papers (6 mm in diameter) were wetted with 10 μL of a solution of N′-(2-(5-(4-chlorophenyl)-1,3,4-oxadiazol-2-ylthio)acetoxy)-3,4-dimethoxybenzimidamide (3) to be tested, containing 10 mg/mL in DMSO, and the discs were allowed to air dry.” left out
# as §2
# [5] = system: Aspergillus flavus; test: agar plate disc-diffusion, antifungal, Aspergillus flavus; settings: Sabouraud's dextrose agar, 72 h, DMSO control zone subtracted
# Description: as §1, with “Sterilized filter papers (6 mm in diameter) were wetted with 10 μL of a solution of N′-(2-(5-(4-chlorophenyl)-1,3,4-oxadiazol-2-ylthio)acetoxy)-3,4-dimethoxybenzimidamide (3) to be tested, containing 10 mg/mL in DMSO, and the discs were allowed to air dry.” left out
# as §2
# [6] = system: Chrysosporium keratinophilum; test: agar plate disc-diffusion, antifungal, Chrysosporium keratinophilum; settings: Sabouraud's dextrose agar, 72 h, DMSO control zone subtracted
# Description: as §1, with “Sterilized filter papers (6 mm in diameter) were wetted with 10 μL of a solution of N′-(2-(5-(4-chlorophenyl)-1,3,4-oxadiazol-2-ylthio)acetoxy)-3,4-dimethoxybenzimidamide (3) to be tested, containing 10 mg/mL in DMSO, and the discs were allowed to air dry.” left out
# as §2
# [7] = A = concentration of comp. = 10,000 μg/mL
# [8] = B = concentration of comp. = 30,000 μL
# [9] = C = concentration of comp. = 50,000 μL
# [10] = A = concentration of comp. = 10,000 μL
structure (smiles),measurement,setting,value
"COc1ccc(/C(N)=N/OC(=O)CSc2nnc(-c3ccc(Cl)cc3)o2)cc1OC [compound 3, N′-(2-(5-(4-chlorophenyl)-1,3,4-oxadiazol-2-ylthio)acetoxy)-3,4-dimethoxybenzimidamide]","inhibition zone, Escherichia coli, A",[1]; [7],28 mm
same,"inhibition zone, Escherichia coli, B",[1]; [8],31 mm
same,"inhibition zone, Escherichia coli, C",[1]; [9],48 mm
same,"inhibition zone, Pseudomonas aeruginosa, A",[2]; [10],25 mm
same,"inhibition zone, Pseudomonas aeruginosa, B",[2]; [8],29 mm
same,"inhibition zone, Pseudomonas aeruginosa, C",[2]; [9],41 mm
same,"inhibition zone, Staphylococcus aureus, A",[3]; [7],17 mm
same,"inhibition zone, Staphylococcus aureus, B",[3]; [8],22 mm
same,"inhibition zone, Staphylococcus aureus, C",[3]; [9],37 mm
same,"inhibition zone, Bacillus Cereus, A",[4]; A =,27 mm
same,"inhibition zone, Bacillus Cereus, B",[4]; [8],30 mm
same,"inhibition zone, Bacillus Cereus, C",[4]; [9],40 mm
same,"inhibition zone, Aspergillus flavus, A",[5]; [10],22 mm
same,"inhibition zone, Aspergillus flavus, B",[5]; [8],26 mm
same,"inhibition zone, Aspergillus flavus, C",[5]; [9],37 mm
same,"inhibition zone, Chrysosporium keratinophilum, A",[6]; A =,26 mm
same,"inhibition zone, Chrysosporium keratinophilum, B",[6]; [8],27 mm
same,"inhibition zone, Chrysosporium keratinophilum, C",[6]; [9],40 mm
